What was measured:
Assay in all cases: relative viability (nuclei count vs DMSO), 5 days (fraction); higher = more cells survive
NCI-H2347 = system: NCI-H2347
Summary of the method: (§1)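 Lung cancer cell lines were pin-tool dosed in 1536-well plates on the day after seeding, with either a lone drug or a fixed anchor-drug dose plus five library-drug doses (not always all listed) in √10 steps. Nuclei were counted on 4× images after 5 days. Relative viability is the ratio of treated-well to vehicle-well nuclei counts, with each value a median of duplicate plates.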

NCI-H460 = system: NCI-H460
Summary of the method: as §1

SW 1573 = system: SW 1573
Summary of the method: as §1

HCC-78 = system: HCC-78
Summary of the method: as §1

RERF-LC-KJ = system: RERF-LC-KJ
Summary of the method: as §1

NCI-H1915 = system: NCI-H1915
Summary of the method: as §1

LXF-289 = system: LXF-289
Summary of the method: as §1

HCC-15 = system: HCC-15
Summary of the method: as §1

NCI-H2126 = system: NCI-H2126
Summary of the method: as §1

NCI-H2228 = system: NCI-H2228
Summary of the method: as §1

A-427 = system: A-427
Summary of the method: as §1

LC-2-ad = system: LC-2-ad
Summary of the method: as §1

SK-LU-1 = system: SK-LU-1
Summary of the method: as §1

PC-3 [JPC-3] = system: PC-3 [JPC-3]
Summary of the method: as §1

NCI-H647 = system: NCI-H647
Summary of the method: as §1

NCI-H1755 = system: NCI-H1755
Summary of the method: as §1

LOU-NH91 = system: LOU-NH91
Summary of the method: as §1

NCI-H1792 = system: NCI-H1792
Summary of the method: as §1

NCI-H1734 = system: NCI-H1734
Summary of the method: as §1

HOP-62 = system: HOP-62
Summary of the method: as §1

NCI-H1975 = system: NCI-H1975
Summary of the method: as §1

## C[C@@H]1CN(CC(=O)Nc2ccc3c(c2)Cc2cccc(-c4cc(=O)cc(N5CCOCC5)o4)c2S3)C[C@H](C)O1 + CC(C)C[C@H](NC(=O)[C@H](Cc1ccccc1)NC(=O)c1cnccn1)B(O)O [Bortezomib] (partner 0.002 µM)
NCI-H2347; first compound 0.04 µM
  relative viability: 0.923
NCI-H2347; first compound 0.1265 µM
  relative viability: 1.03
NCI-H2347; first compound 0.4 µM
  relative viability: 1.2
NCI-H2347; first compound 4 µM
  relative viability: 0.958
NCI-H460; first compound 0.04 µM
  relative viability: 1.13
NCI-H460; first compound 0.1265 µM
  relative viability: 1.05
NCI-H460; first compound 0.4 µM
  relative viability: 1.24
NCI-H460; first compound 4 µM
  relative viability: 0.759
SW 1573; first compound 0.04 µM
  relative viability: 1.17
SW 1573; first compound 0.1265 µM
  relative viability: 1.15
SW 1573; first compound 0.4 µM
  relative viability: 0.926
SW 1573; first compound 4 µM
  relative viability: 0.976
HCC-78; first compound 0.04 µM
  relative viability: 0.404
HCC-78; first compound 0.1265 µM
  relative viability: 0.484
HCC-78; first compound 0.4 µM
  relative viability: 0.431
HCC-78; first compound 4 µM
  relative viability: 0.432
RERF-LC-KJ; first compound 0.04 µM
  relative viability: 1.24
RERF-LC-KJ; first compound 0.1265 µM
  relative viability: 1.17
RERF-LC-KJ; first compound 0.4 µM
  relative viability: 1.07
RERF-LC-KJ; first compound 4 µM
  relative viability: 0.998
NCI-H1915; first compound 0.04 µM
  relative viability: 0.905
NCI-H1915; first compound 0.1265 µM
  relative viability: 0.964
NCI-H1915; first compound 0.4 µM
  relative viability: 1.03
NCI-H1915; first compound 4 µM
  relative viability: 0.73
LXF-289; first compound 0.04 µM
  relative viability: 0.996
LXF-289; first compound 0.1265 µM
  relative viability: 0.977
LXF-289; first compound 0.4 µM
  relative viability: 1.02
LXF-289; first compound 4 µM
  relative viability: 0.999
HCC-15; first compound 0.04 µM
  relative viability: 1
HCC-15; first compound 0.1265 µM
  relative viability: 0.948
HCC-15; first compound 0.4 µM
  relative viability: 1.03
HCC-15; first compound 4 µM
  relative viability: 0.836
NCI-H2126; first compound 0.04 µM
  relative viability: 1.13
NCI-H2126; first compound 0.1265 µM
  relative viability: 1.12
NCI-H2126; first compound 0.4 µM
  relative viability: 1.17
NCI-H2126; first compound 4 µM
  relative viability: 1.06
NCI-H2228; first compound 0.04 µM
  relative viability: 0.932
NCI-H2228; first compound 0.1265 µM
  relative viability: 0.877
NCI-H2228; first compound 0.4 µM
  relative viability: 0.821
NCI-H2228; first compound 4 µM
  relative viability: 0.523
A-427; first compound 0.04 µM
  relative viability: 1.02
A-427; first compound 0.1265 µM
  relative viability: 0.993
A-427; first compound 0.4 µM
  relative viability: 0.952
A-427; first compound 4 µM
  relative viability: 1.03
LC-2-ad; first compound 0.04 µM
  relative viability: 1.09
LC-2-ad; first compound 0.1265 µM
  relative viability: 0.981
LC-2-ad; first compound 0.4 µM
  relative viability: 0.936
LC-2-ad; first compound 4 µM
  relative viability: 0.847
SK-LU-1; first compound 0.04 µM
  relative viability: 1.17
SK-LU-1; first compound 0.1265 µM
  relative viability: 1.43
SK-LU-1; first compound 0.4 µM
  relative viability: 1.09
SK-LU-1; first compound 4 µM
  relative viability: 1.13
PC-3 [JPC-3]; first compound 0.04 µM
  relative viability: 0.861
PC-3 [JPC-3]; first compound 0.1265 µM
  relative viability: 0.771
PC-3 [JPC-3]; first compound 0.4 µM
  relative viability: 0.908
PC-3 [JPC-3]; first compound 4 µM
  relative viability: 0.677
NCI-H647; first compound 0.04 µM
  relative viability: 1
NCI-H647; first compound 0.1265 µM
  relative viability: 1.02
NCI-H647; first compound 0.4 µM
  relative viability: 0.985
NCI-H647; first compound 4 µM
  relative viability: 0.484
NCI-H1755; first compound 0.04 µM
  relative viability: 1.05
NCI-H1755; first compound 0.1265 µM
  relative viability: 1.01
NCI-H1755; first compound 0.4 µM
  relative viability: 0.948
NCI-H1755; first compound 4 µM
  relative viability: 0.942
LOU-NH91; first compound 0.04 µM
  relative viability: 0.495
LOU-NH91; first compound 0.1265 µM
  relative viability: 0.446
LOU-NH91; first compound 0.4 µM
  relative viability: 0.428
LOU-NH91; first compound 4 µM
  relative viability: 0.527
NCI-H1792; first compound 0.04 µM
  relative viability: 0.939
NCI-H1792; first compound 0.1265 µM
  relative viability: 0.913
NCI-H1792; first compound 0.4 µM
  relative viability: 0.924
NCI-H1792; first compound 4 µM
  relative viability: 0.859
NCI-H1734; first compound 0.04 µM
  relative viability: 1.07
NCI-H1734; first compound 0.1265 µM
  relative viability: 1.04
NCI-H1734; first compound 0.4 µM
  relative viability: 0.927
NCI-H1734; first compound 4 µM
  relative viability: 1.1
HOP-62; first compound 0.04 µM
  relative viability: 0.677
HOP-62; first compound 0.1265 µM
  relative viability: 0.548
HOP-62; first compound 0.4 µM
  relative viability: 0.755
HOP-62; first compound 4 µM
  relative viability: 1.02
NCI-H1975; first compound 0.04 µM
  relative viability: 0.394
NCI-H1975; first compound 0.1265 µM
  relative viability: 0.415
NCI-H1975; first compound 0.4 µM
  relative viability: 0.39
NCI-H1975; first compound 4 µM
  relative viability: 0.27

Source: the supplement of paper PMC10307832
